Results from US10821079B2, “PKC activators and combinations thereof” (Cognitive Research Enterprises, Inc., priority 2011, dated 2020).

How the values were obtained:
GSK-3β = test: Phospho GSK-3β (Ser-9) Western Blot in ASPD treated primary neurons; format: cell-based, rat; details: 50 nM ASPD + 100 nM DCPLA-ME
Source text: Phospho GSK-3β expression was normalized against total GSK-3β expression. […] Data are represented as mean±SEM. (Student's t test *. p<0.05; and **, p<0.005 n=3).
Since GSK-3β is a key enzyme in the production of hyperphosphorylated tau protein, and phosphorylation of the Ser-9 residue causes GSK-3β inhibition, increasing phosphorylation of GSK-3β at Ser-9 by PKC could also enhance the protective effect of DCPLA-ME.

PKC-ε = PKC-ε mRNA by RT-PCR in primary rat hippocampal neurons; format: cell-based; details: controls and ASPD-treated cells
Procedure: RNA was isolated from the cells using Trizol reagent (Invitrogen, USA) following the manufacturer's protocol. Briefly, 5 μg of total RNA was reverse transcribed using oligo (dT) and Superscript III (Invitrogen, USA) at 50° C. for 1 hr. Two μl of the cDNA product was amplified using primers for PKC-ε (Forward Primer—[…], Reverse primer—[…]), and β-tubulin (Forward Primer—[…], Reverse primer—[…]) (Origene, Rockville, Md.) for 25 cycles following standard PCR protocols and 55° C. annealing temperature. The PCR amplicons were analyzed in an E-Gel (Invitrogen, USA). The gel image was documented using a Fuji Image gel scanner (FLA-9000, Fuji Film) and densitometric quantification was performed using the IMAL software (Blanchette Rockefeller Neurosciences Institute, Morgantown, W. Va.). Data were represented as normalized ratio of PKC-ε OD (Optical Density) against β-tubulin OD for three independent experiments.
Primary neurons were treated with ASPD and/or DCPLA-ME. PKC-ε mRNA was quantified by RT-PCR as described above. RNA prepared from control and treated cultured primary rat hippocampal neurons were isolated and reverse transcribed. Individual cDNA was amplified for PKC-ε and β-actin. PKC-ε expression was normalized to β-actin.

[1] = test system: rat hippocampal primary neurons; test: Synaptic marker immunofluorescence in rat hippocampal primary neurons; format: cell-based; details: 50 nM ASPD alone (ASPD) or with 100 nM DCPLA-ME, 20 hr
Procedure: Cells were grown in two chambered slides (Nunc, USA) at low density. For immunofluorescence staining, the cells were washed with PBS (pH 7.4) and fixed with 4% paraformaldehyde for 4 min. Following fixation, the cells were blocked and permeabilized with 5% serum and 0.3% Triton X 100 in 1×PBS for 30 min. The cells were washed three times with 1×PBS and incubated with primary antibodies for 1 hr at 1:100 dilution. The incubation slides were then washed again three times in 1×PBS and were incubated with the FITC anti-rabbit IgG and Rhodamine anti-mouse IgG for 1 hr at 1:400 dilution. The cells were further washed and treated with DAPI (4′,6-diamidino-2′-phenylindole, dihydrochloride) (Thermo Scientific, USA) to stain the nucleus. Finally, the slides were washed and mounted in Pro Long Gold antifade mounting solution (Invitrogen, USA) and were viewed under the LSM 710 Meta confocal microscope (Zeiss) at 350 nm, 490 nm, and 540 nm excitation and 470 nm, 525 nm, and 625 nm emission for DAPI, FITC, and Rhodamine respectively. Six individual fields at 63× oil lens magnification were analyzed for the mean fluorescence intensity (MFI) in each channel. The co-localization correlation generated by the ZEN software (Zeiss).
To estimate the synaptic damage caused by the ASPDs on primary hippocampal neurons, the expression of synaptophysin (a presynaptic marker) and PSD-95 (a postsynaptic marker) was measured by immunofluorescence staining. […] Following a 20 hr incubation period, the cells were stained for nucleus, PSD-95, and synaptophysin. Expression levels were calculated as the change of percentage in mean fluorescence intensity compared to untreated cells.
Primary neurons, treated and untreated, were immunostained for MAP-2, synaptophysin, and PSD-95 to determine the synaptic integrity. […] Following a 20 hr incubation period, the cells were stained for MAP-2, PSD-95, and synaptophysin as described above.

[2] = test system: primary human cortical neurons; test: Long-term culture of human primary cortical neurons (40 days); format: cell-based
Procedure: More specifically, human primary cortical neurons were grown in Neuronal Medium (ScienCell Cat No #1521) containing neuronal growth supplement (NGS) (Sciencell Cat No #1562).
Cells were plated on poly-l-lysine (0.001%) coated plates at a density of >10000 cells/cm2. Half of the media was replaced by new media every 3 days. DCPLA-ME or Bryostatin was dissolved in 100% ethanol and added at final concentration (100 nM for DCPLA-ME, 0.27 nM for Bryostatin). Fresh DCPLA-ME (100 nM) or Bryostatin (0.27 nM) was added every 3 days during media change. The experiments were continued for 40 days.
Human primary neurons (ScienCell Research Laboratories, USA) were thawed and plated on poly-L-lysine coated plates at a density of 10,000 cells per cm^2 and were maintained in neuronal medium (DMEM+high glucose+neuronal growth supplement, ScienCell Research Laboratories, USA) following the recommended method. Primary human neurons were then treated with either DCPLA-ME (100 nM) or bryostatin 1 (0.27 nM) for 40 days. Fresh drug was added every third day with 50% media change.

[3] = cited from earlier work
synaptosomes = test: Western blot of synaptosomes from treated cells; format: cell-based, human; details: RA 10 μM, Bryostatin-1 0.27 nM, 72 hr
Procedure: Synaptosomes from undifferentiated and differentiated cells were prepared following the method described earlier (29). See Nagy et al. (1984) J Neurochem 43, 1114-1123. Briefly, the cells were washes in 1×PBS and homogenized in 10 volumes of buffer (“buffer1”) containing 0.32 M sucrose, 5 mM HEPES pH 7.2, and 0.1 mM EDTA in a Teflon homogenizer. The homogenate was centrifuged at 1000×g for 10 min to remove the nuclear fraction. The supernatant obtained was again spun at 12000×g for 20 min at 4° C. The pellet thus obtained was resuspended in 3 volumes of buffer1 and was layered on to the 16%/10%/8.5% Percoll gradient prepared from the stock isoosmotic percoll containing 9 parts 100% percoll, and 1 part 2.5 M sucrose. The preparation was centrifuged at 15000×g for 20 min at 4° C. Synaptosomes collected from the layer between 10% and 16% gradient was washed with 1×PBS and was centrifuged at 20000×g for 15 min. The purified synaptosomes were homogenized in homogenizing buffer and were subjected to western blot as described before.
Western blot analysis was performed after 72 hr.

| Compound | phosphorylation of Ser-9 of GSK-3β (in words) (GSK-3β) | PKC-ε transcript levels (in words) (PKC-ε) | MAP-2 expression (mean fluorescence intensity) [1] [%] | PSD-95 expression (mean fluorescence intensity) [1] [%] | synaptophysin expression (mean fluorescence intensity) [1] [%] | fractal dimension (neuritic branching) ([2]; 100 nM) | number of colocalized puncta of synaptophysin and PSD-95 ([2]; 100 nM) | number of synapses (in words) ([2]; 100 nM) | neurite-positive cells/field ([2]; 100 nM, 40 days) [cells/field] | expression levels of PKCε, PSD-95 and synaptophysin (in words) ([2]; compared to control or bryostatin 1-treated cells, 40 days) | toxicity ([3]; at 20 μg/week) | dose that may be associated with muscle pain ([3]; in vivo) | increase in PKC-ε level in synaptosomes (synaptosomes) [fold] |
| --- | --- | --- | --- | --- | --- | --- | --- | --- | --- | --- | --- | --- | --- |
| CCCCCC1CC1CC1CC1CCCCCCCC(=O)OC (stereo not shown) [DCPLA-ME, methyl 8-(2-((2-pentylcyclopropyl)methyl)cyclopropyl)octanoate] | restored phosphorylation of the Ser-9 residue of GSK-3β to normal levels | increased PKC-ε transcript levels | 68.87±2.0 | 99.2±11.3 | 87.48±3.75 | 1.40±0.03 | 230 % of control | significantly increased | 360±45 | significantly higher | – | – | – |
| CCC/C=C/C=C/C(=O)O[C@H]1/C(=C/C(=O)OC)C[C@H]2C[C@H]([C@@H](C)O)OC(=O)C[C@H](O)C[C@@H]3C[C@H](OC(C)=O)C(C)(C)C(O)(C[C@@H]4C/C(=C/C(=O)OC)C[C@H](/C=C/C(C)(C)[C@]1(O)O2)O4)O3 [Bryostatin-1] | – | – | – | – | – | – | – | – | – | – | no toxicity | more than 35 μg/week | 2 |
